How the values were obtained:
[1] = system: deoxyribonucleoside kinases from Aedes aegypti (PZG318); test: Nucleoside kinase activity (DE-81 filter paper assay, tritium labelled substrates) in extracts of KY895 cells transformed with PZG318; assay type: biochemical; conditions: for Phosphorylation / activation by the mosquito deoxyribonucleoside kinase (in words): extract of KY895 transformed with PZG318; for Deoxyribonucleoside kinase specific activity in extract: substrate at fixed concentration of 100 μM
Description: (§1) This example describes how E. coli KY895 were transformed with the plasmid obtained according to Example 1, in order to express mosquito dNK.
(§2) KY895 cells were transformed by the expression plasmid of Example 1 using standard techniques, e.g. as described by e.g. Sambrook et al. [Sambrook et al.; Molecular Cloning: A Laboratory Manual, Cold Spring Harbor Lab., Cold Spring Harbor, N.Y. 1989].
(§3) Transformed cells were grown to an OD600 nm of 0.5-0.6 in LB/Ampicillin (100 μg/ml) medium at 37° C. and protein expression was induced by addition of 100 μM IPTG. The cells were further grown for 4 h at 25° C. and subsequently harvested by centrifugation. The cell pellet was subjected to sonification in the binding buffer A (20 mM NaPO4 pH 7,3; 150 mM NaCl; 10% Glycerol; and 0.1% Triton X-100) and subjected to centrifugation at 10,000×g for 30 minutes. Cell free extract was used for enzymatic activity assays.
Nucleoside kinase activities were determined by initial velocity measurments based on four time sample by the DE-81 filter paper assay using tritium labelled substrates. The assays were performed as described by Munch-Petersen et al. [Munch-Petersen B, Knecht W, Lenz C, Søndergaard L, Piskur J: Functional expression of a multisubstrate deoxyribonucleoside kinase from Drosophila melanogaster and its C-terminal deletion mutants; J. Biol. Chem. 2000 275 6673-6679].
The protein concentration was determined according to Bradford with BSA as standard protein [Bradford M M: A rapid and sensitive method for the quantitation of microgram quantities of protein utilizing the principle of protein-dye binding; Anal. Biochem. 1976 72 248-254]. SDS-PAGE was done according to the procedure of Laemmli[Laemmil U K: Cleavage of structural proteins during the assembly of the head of bacteriophage T4; Nature 1970 227 680-685], and proteins were visualized by Coomassie staining to verify recombinant protein expression.
The natural deoxyribonucleoside and deoxyribonucleoside analogs were tested at a fixed concentration of 100 μM. The specific activity in each extract is given in mU/ml.

[2] = system: KY895 transformed with PZG318; test: Growth of transformed E. coli KY895 on nucleoside analog plates, transformed with PZG318 (mosquito dNK kinase); assay type: cell-based
Description: (§4) Deoxyribonucleoside kinases are of interest as suicide-genes to be used in gene-mediated therapy of cancer or viral infections. In this example the potential of the mosquito kinase of the invention to convert different nucleoside analogs are compared to that of the human Herpes simplex virus 1 thymidine kinase (HSV1-TK) in a bacterial test system.
(§5) The experiment was carried out essentially as described by Knecht et al. [Knecht W. Munch-Petersen B and Piskur J: identification of residues involved in the specificity and regulation of the highly efficient multisubstrate deoxyribonucleoside kinase from Drosophila melanogaster; J. Mol. Biol. […] 301 827-837]. Briefly, overnight cultures of transformed KY895 were diluted 200-fold in 10% glyercol and 2 μl drops of the dilutions were spotted on M9 minimal medium plates [Ausubel F, Brent R, Kingston R E, Moore D D, Seldman J G, Smitf J A & Struhl K (Eds.): Short protocols in molecular biology; 3rd edition (1995) pp. 1-2, Wiley, USA] supplemented with 0.2% glucose, 0.1% casamino acids, 100 μg/ml ampicillin and with or without nucleoside analogs. Growth was inspected visually after 24 hours of incubation at 37° C.

[3] = system: KY895 transformed with pGEX-2T-HSV1-TK; test: Growth of transformed E. coli KY895 on nucleoside analog plates, transformed with pGEX-2T-HSV1-TK; assay type: cell-based; conditions: 24 hours at 37° C.
Description: as §4, §5

KY895 = test: Growth of E. coli KY895 on nucleoside analog plates, controls (cells only, empty vector pGEX-2T); assay type: cell-based; conditions: 24 hours at 37° C.
Description: as §4, §5
pGEX-2T is the empty vector and is available from Amersham-Pharmacia;

Extracts of KY895 Cells = test: Nucleoside kinase activity (DE-81 filter paper assay) in control extracts of KY895 cells (cells only, empty vector pGEX-2T); assay type: biochemical, E. coli; conditions: extract of KY895 transformed with pGEX-2T (empty vector); substrate 100 μM; n.d. = not detectable
Description: as §1, §2, §3
Nucleoside kinase activities were determined by initial velocity measurments based on four time sample by the DE-81 filter paper assay using tritium labelled substrates. […]
The protein concentration was determined according to Bradford with BSA as standard protein [Bradford M M: A rapid and sensitive method for the quantitation of microgram quantities of protein utilizing the principle of protein-dye binding; Anal. Biochem. 1976 72 248-254]. […]

| Compound | Phosphorylation / activation by the mosquito deoxyribonucleoside kinase (in words) [1] | Deoxyribonucleoside kinase specific activity in extract [1] | LD100 with mosquito dNK kinase (PZG318) lower than that of HSV1-TK ([2]; KY895 on nucleoside analog plates, PZG318 versus HSV1-TK) | dFdC LD100 ([2]; KY895 transformed with PZG318, M9 plates, growth inspected after 24 hours at 37° C.) | dFdC LD100 [3] | dFdC LD100 (KY895; KY895 cells only) | dFdC LD100 (KY895; KY895 transformed with pGEX-2T (empty vector)) | Deoxyribonucleoside kinase specific activity in extract (Extracts of KY895 Cells) |
| --- | --- | --- | --- | --- | --- | --- | --- | --- |
| Nc1nc(O)c2ncn(COC(CO)CO)c2n1 [GCV, gancyclovir] | also activated | 0.7 mU/ml |  |  |  |  |  |  |
| Nc1nc2c(ncn2[C@H]2C[C@H](O)[C@@H](CO)O2)c(=O)[nH]1 [dGuo, deoxyguanosine] | able to phosphorylate | 214.7 mU/ml |  |  |  |  |  |  |
| Nc1ccn([C@@H]2O[C@H](CO)[C@@H](O)C2(F)F)c(=O)n1 [dFdC, 2′,2′-difluorodeoxycytidine] | much stronger than dCyt | 228 mU/ml | at least 30 fold | 3.16 nM | >100 nM | >100 nM | >100 nM |  |
| Nc1nc2c(ncn2COCCO)c(=O)[nH]1 [ACV, acyclovir] | also activated | 0.3 mU/ml |  |  |  |  |  |  |
| Cc1cn([C@H]2C[C@H](O)[C@@H](CO)O2)c(=O)[nH]c1=O [Thd, thymidine] | able to phosphorylate | 125 mU/ml |  |  |  |  |  |  |
| Nc1ccn([C@H]2C[C@H](O)[C@@H](CO)O2)c(=O)n1 [dCyt, deoxycytidine] | able to phosphorylate | 124.5 mU/ml |  |  |  |  |  | 0.1 mU/ml |
| Nc1ncnc2c1ncn2[C@H]1C[C@H](O)[C@@H](CO)O1 [dAdo, deoxyadenosine] | able to phosphorylate | 364 mU/ml |  |  |  |  |  |  |
